Tests used:
Format in all cases: in vivo
corn (Zea mays) [1] = experiment: Test G Post-Emergence Protocol; conditions: Zea mays, post-emergence, 312 h; for plant injury at 15.625 g/ha: 15.625 g ai/ha, evaluated after 13 days (100=total damage to plant; 0=no damage to plant), read-out: Corn damage rating; for plant injury at 62.5 g/ha: 62.5 g ai/ha, read-out: Corn damage rating (100=total damage to plant; 0=no damage to plant); for plant injury at 62.5 g/ha / plant injury at 250 g/ha: evaluated after 13 days; for plant injury at 250 g/ha: 250 g ai/ha, read-out: damage to plant, Corn (100=total damage to plant; 0=no damage to plant)
Outline: (§1)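 Values are percent visual injury at 13 days after treatment (0 none, 100 total). Treatment was a post-emergence spray at 15.625, 62.5 or 250 g/ha on 8-day-old pot plants kept at 24/16 °C.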

[2] = system: barnyardgrass (Echinochloa crus-galli); experiment: Test G Post-Emergence Protocol; conditions: Echinochloa crus-galli, post-emergence, 312 h; for pest or weed control at 15.625 g/ha: 15.625 g ai/ha, evaluated after 13 days (100=total damage to plant; 0=no damage to plant), read-out: Barnyardgrass damage rating; for pest or weed control at 62.5 g/ha: 62.5 g ai/ha, read-out: Barnyardgrass damage rating (100=total damage to plant; 0=no damage to plant); for pest or weed control at 62.5 g/ha / pest or weed control at 250 g/ha: evaluated after 13 days; for pest or weed control at 250 g/ha: 250 g ai/ha, read-out: damage to plant, Barnyardgrass (100=total damage to plant; 0=no damage to plant)
Outline: as §1

[3] = system: giant foxtail (Setaria faberi); experiment: Test G Post-Emergence Protocol; conditions: Setaria faberi, post-emergence, 312 h; for pest or weed control at 15.625 g/ha: 15.625 g ai/ha, evaluated after 13 days (100=total damage to plant; 0=no damage to plant), read-out: Foxtail, Giant damage rating; for pest or weed control at 62.5 g/ha: 62.5 g ai/ha, read-out: Foxtail, Giant damage rating (100=total damage to plant; 0=no damage to plant); for pest or weed control at 62.5 g/ha / pest or weed control at 250 g/ha: evaluated after 13 days; for pest or weed control at 250 g/ha: 250 g ai/ha, read-out: damage to plant, Foxtail, Giant (100=total damage to plant; 0=no damage to plant)
Outline: as §1

[4] = system: redroot pigweed (Amaranthus retroflexus); experiment: Test G Post-Emergence Protocol; conditions: Amaranthus retroflexus, post-emergence, 312 h; for pest or weed control at 15.625 g/ha: 15.625 g ai/ha, evaluated after 13 days (100=total damage to plant; 0=no damage to plant), read-out: Pigweed, Redroot damage rating; for pest or weed control at 62.5 g/ha: 62.5 g ai/ha, read-out: Pigweed, Redroot damage rating (100=total damage to plant; 0=no damage to plant); for pest or weed control at 62.5 g/ha / pest or weed control at 250 g/ha: evaluated after 13 days; for pest or weed control at 250 g/ha: 250 g ai/ha, read-out: damage to plant, Pigweed, Redroot (100=total damage to plant; 0=no damage to plant)
Outline: as §1

[5] = system: ivy-leaved morning glory (Ipomoea hederacea); experiment: Test G Post-Emergence Protocol; conditions: Ipomoea, post-emergence, 312 h; for pest or weed control at 15.625 g/ha: 15.625 g ai/ha, evaluated after 13 days (100=total damage to plant; 0=no damage to plant), read-out: Morningglory, Ivy-leaved damage rating; for pest or weed control at 62.5 g/ha: 62.5 g ai/ha, read-out: Morningglory, Ivy-leaved damage rating (100=total damage to plant; 0=no damage to plant); for pest or weed control at 62.5 g/ha / pest or weed control at 250 g/ha: evaluated after 13 days; for pest or weed control at 250 g/ha: 250 g ai/ha, read-out: damage to plant, Morningglory, Ivy-leaved (100=total damage to plant; 0=no damage to plant)
Outline: as §1

[6] = system: velvetleaf (Abutilon theophrasti); experiment: Test G Post-Emergence Protocol; conditions: Abutilon theophrasti, post-emergence, 312 h; for pest or weed control at 15.625 g/ha: 15.625 g ai/ha, evaluated after 13 days (100=total damage to plant; 0=no damage to plant), read-out: Velvetleaf damage rating; for pest or weed control at 62.5 g/ha: 62.5 g ai/ha, read-out: Velvetleaf damage rating (100=total damage to plant; 0=no damage to plant); for pest or weed control at 62.5 g/ha / pest or weed control at 250 g/ha: evaluated after 13 days; for pest or weed control at 250 g/ha: 250 g ai/ha, read-out: damage to plant, Velvetleaf (100=total damage to plant; 0=no damage to plant)
Outline: as §1

corn (Zea mays) [7] = experiment: Test G Pre-Emergence Protocol; conditions: Zea mays, pre-emergence, 312 h, evaluated after 13 days; for plant injury at 15.625 g/ha: 15.625 g ai/ha; for plant injury at 15.625 g/ha / plant injury at 250 g/ha: read-out: Corn damage rating (100=total damage to plant; 0=no damage to plant); for plant injury at 62.5 g/ha: 62.5 g ai/ha, 100=total damage to plant, 0=no damage to plant, read-out: plant damage rating, Corn; for plant injury at 250 g/ha: 250 g ai/ha
Outline: (§2)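 Under a 24/16° C day/night regime with 14 h light and 65% humidity, sown pots were sprayed after one day with compound (15.625, 62.5 or 250 g/ha; 50:50 acetone/water, 0.5% Tween 20). Damage was assessed visually 13 days later, 0 to 100.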

[8] = system: barnyardgrass (Echinochloa crus-galli); experiment: Test G Pre-Emergence Protocol; conditions: Echinochloa crus-galli, pre-emergence, 312 h, evaluated after 13 days; for pest or weed control at 15.625 g/ha: 15.625 g ai/ha, read-out: Barnyard grass damage rating (100=total damage to plant; 0=no damage to plant); for pest or weed control at 62.5 g/ha: 62.5 g ai/ha, 100=total damage to plant, 0=no damage to plant, read-out: plant damage rating, Barnyardgrass; for pest or weed control at 250 g/ha: 250 g ai/ha, read-out: Barnyardgrass damage rating (100=total damage to plant; 0=no damage to plant)
Outline: as §2

[9] = system: giant foxtail (Setaria faberi); experiment: Test G Pre-Emergence Protocol; conditions: Setaria faberi, pre-emergence, 312 h, evaluated after 13 days; for pest or weed control at 15.625 g/ha: 15.625 g ai/ha; for pest or weed control at 15.625 g/ha / pest or weed control at 250 g/ha: read-out: Foxtail, Giant damage rating (100=total damage to plant; 0=no damage to plant); for pest or weed control at 62.5 g/ha: 62.5 g ai/ha, 100=total damage to plant, 0=no damage to plant, read-out: plant damage rating, Foxtail, Giant; for pest or weed control at 250 g/ha: 250 g ai/ha
Outline: as §2

[10] = system: redroot pigweed (Amaranthus retroflexus); experiment: Test G Pre-Emergence Protocol; conditions: Amaranthus retroflexus, pre-emergence, 312 h, evaluated after 13 days; for pest or weed control at 15.625 g/ha: 15.625 g ai/ha; for pest or weed control at 15.625 g/ha / pest or weed control at 250 g/ha: read-out: Pigweed, Redroot damage rating (100=total damage to plant; 0=no damage to plant); for pest or weed control at 62.5 g/ha: 62.5 g ai/ha, 100=total damage to plant, 0=no damage to plant, read-out: plant damage rating, Pigweed, Redroot; for pest or weed control at 250 g/ha: 250 g ai/ha
Outline: as §2

[11] = system: ivy-leaved morning glory (Ipomoea hederacea); experiment: Test G Pre-Emergence Protocol; conditions: Ipomoea, pre-emergence, 312 h, evaluated after 13 days; for pest or weed control at 15.625 g/ha: 15.625 g ai/ha, read-out: Morning-glory, Ivy-leaved damage rating (100=total damage to plant; 0=no damage to plant); for pest or weed control at 62.5 g/ha: 62.5 g ai/ha, 100=total damage to plant, 0=no damage to plant, read-out: plant damage rating, Morningglory, Ivy-leaved; for pest or weed control at 250 g/ha: 250 g ai/ha, read-out: Morningglory, Ivy-leaved damage rating (100=total damage to plant; 0=no damage to plant)
Outline: as §2

[12] = system: velvetleaf (Abutilon theophrasti); experiment: Test G Pre-Emergence Protocol; conditions: Abutilon theophrasti, pre-emergence, 312 h, evaluated after 13 days; for pest or weed control at 15.625 g/ha: 15.625 g ai/ha; for pest or weed control at 15.625 g/ha / pest or weed control at 250 g/ha: read-out: Velvetleaf damage rating (100=total damage to plant; 0=no damage to plant); for pest or weed control at 62.5 g/ha: 62.5 g ai/ha, 100=total damage to plant, 0=no damage to plant, read-out: plant damage rating, Velvetleaf; for pest or weed control at 250 g/ha: 250 g ai/ha
Outline: as §2

SMILES | plant injury at 15.625 g/ha (corn (Zea mays) [1]) [%] | plant injury at 62.5 g/ha (corn (Zea mays) [1]) [%] | plant injury at 250 g/ha (corn (Zea mays) [1]) [%] | pest or weed control at 15.625 g/ha [2] [%] | pest or weed control at 62.5 g/ha [2] [%] | pest or weed control at 250 g/ha [2] [%] | pest or weed control at 15.625 g/ha [3] [%] | pest or weed control at 62.5 g/ha [3] [%] | pest or weed control at 250 g/ha [3] [%] | pest or weed control at 15.625 g/ha [4] [%] | pest or weed control at 62.5 g/ha [4] [%] | pest or weed control at 250 g/ha [4] [%] | pest or weed control at 15.625 g/ha [5] [%] | pest or weed control at 62.5 g/ha [5] [%] | pest or weed control at 250 g/ha [5] [%] | pest or weed control at 15.625 g/ha [6] [%] | pest or weed control at 62.5 g/ha [6] [%] | pest or weed control at 250 g/ha [6] [%] | plant injury at 15.625 g/ha (corn (Zea mays) [7]) [%] | plant injury at 62.5 g/ha (corn (Zea mays) [7]) [%] | other results
Cc1c(NC(=O)[C@H]2C(=O)N(C)C[C@@H]2c2ccc(C(F)(F)F)cc2)cccc1C(F)(F)F (racemic) [Compound 1424] | 0 | 0 | 10 | 0 | 0 | 10 | 0 | 0 | 20 | 10 | 20 | 20 | 0 | 0 | 0 | 0 | 0 | 0 | 0 | 0 | plant injury at 250 g/ha (corn (Zea mays) [7]): 0%; pest or weed control at 15.625 g/ha [8]: 0%; pest or weed control at 62.5 g/ha [8]: 10%; pest or weed control at 250 g/ha [8]: 50%; pest or weed control at 15.625 g/ha [9]: 0%; pest or weed control at 62.5 g/ha [9]: 40%; pest or weed control at 250 g/ha [9]: 70%; pest or weed control at 15.625 g/ha [10]: 0%; pest or weed control at 62.5 g/ha [10]: 0%; pest or weed control at 250 g/ha [10]: 0%; pest or weed control at 15.625 g/ha [11]: 0%; pest or weed control at 62.5 g/ha [11]: 0%; pest or weed control at 250 g/ha [11]: 0%; pest or weed control at 15.625 g/ha [12]: 0%; pest or weed control at 62.5 g/ha [12]: 0%; pest or weed control at 250 g/ha [12]: 0%
CN1C[C@@H](c2ccc(C(F)(F)F)cc2)[C@H](C(=O)Nc2ccnc(Cl)n2)C1=O (racemic) [Compound 1544] | 10 | 10 | 10 | 0 | 0 | 0 | 0 | 0 | 0 | 0 | 0 | 0 | 0 | 0 | 0 | 0 | 0 | 0 | 0 | 0 | plant injury at 250 g/ha (corn (Zea mays) [7]): 0%; pest or weed control at 15.625 g/ha [8]: 0%; pest or weed control at 62.5 g/ha [8]: 0%; pest or weed control at 250 g/ha [8]: 0%; pest or weed control at 15.625 g/ha [9]: 0%; pest or weed control at 62.5 g/ha [9]: 0%; pest or weed control at 250 g/ha [9]: 0%; pest or weed control at 15.625 g/ha [10]: 0%; pest or weed control at 62.5 g/ha [10]: 0%; pest or weed control at 250 g/ha [10]: 0%; pest or weed control at 15.625 g/ha [11]: 0%; pest or weed control at 62.5 g/ha [11]: 0%; pest or weed control at 250 g/ha [11]: 0%; pest or weed control at 15.625 g/ha [12]: 0%; pest or weed control at 62.5 g/ha [12]: 0%; pest or weed control at 250 g/ha [12]: 0%

From patent publication US12077503B2, “Substituted cyclic amides and their use as herbicides” (FMC CORPORATION, priority 2015, dated 2024)
